Active and inactive are the calls of the source.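 Rule for the calls: active = caspase luminescence falls with dose and the half-maximal concentration AC50 from the fitted curve is at or below a set limit; inconclusive = flat fit at 30 to 70% signal loss, or invalid fit; inactive = AC50 above the limit, or signal rises instead.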 Bounds are passed on as bounds.

The subject of this experiment is INS-1E cytokine-induced caspase-3/7, Caspase-Glo luminescence, 48 h. The experiment is described as follows: suppression of cytokine-driven beta-cell apoptosis – INS-1E rat cells, luminescence, orthogonal assay for beta-cell apoptosis protection project, dose response (AID 463206).
Broadly, the AC50 is the concentration at which the activity in the assay is half-maximal. As to `CCC1CCCCN1C(=O)c1cc(COc2ccc(-n3cncn3)cc2)on1` (centres undefined), the AC50 is > 26 µM (inactive). For `COc1ccc(CC(=O)Nc2cccc(-c3nnc(-c4cccc(C)c4)o3)c2)cc1OC`, the AC50 is > 26 µM (inactive). With `Cc1cc(-c2ccccc2)cc(C)[n+]1Cc1ccccc1`, the AC50 is > 26 µM (inactive). On to `COc1ccc(-c2nc(-c3ccccn3)no2)cc1`, for which the AC50 is > 26 µM (inactive).

As to `O=C(/C(=C/c1cccc(Cl)c1)c1nc2ccccc2[nH]1)c1ccccc1`, the AC50 is > 26 µM (inactive). With `CCN(CC)S(=O)(=O)c1ccc(N/N=C/c2cc(OC)ccc2O)nc1` the figure was > 26 µM (inactive). For the molecule `Cc1nc2c(=O)n(C)c(=O)nc-2n(C)n1`, the AC50 is > 26 µM (inactive).

Regarding `CC(=O)c1ccc(OCc2cc(C(=O)N3CCCCC3c3cccnc3)no2)cc1` (centres undefined), the AC50 is > 26 µM (inactive). With `CCCCCn1c(=O)c(C(=O)NCc2ccccc2Cl)c(O)c2ccccc21` the figure was > 26 µM (inactive).

The record behind these values is PubChem BioAssay AID463206 (Broad Institute, 2010).
